Experimental data as given in patent publication US20240382629A1, “HETEROBIVALENT AND HOMOBIVALENT AGENTS TARGETING FIBROBLAST ACTIVATION PROTEIN ALPHA AND/OR PROSTATE-SPECIFIC MEMBRANE ANTIGEN” (The Johns Hopkins University, priority 2021, published 2024).
Values joined by “and” are separate entries in the source; they are usually repeats but may differ in a detail not shown here. Equal entries are not always repeated.

Assay: Biodistribution of representative compounds ([^18F]Sri-07-56, [^18F]Sri-07-52, [^18F]JHU1221823, [^18F]FAPI-74), tissue % ID/g with carrier or blocker
Type: in vivo, mouse
Settings: 60 min, 20 μCi per mouse
Excerpt: Biodistribution of Representative Compounds

**Q.** For `N#CC1CCCN1C(=O)CNC(=O)c1ccnc2ccc(OCCCNC(=O)CCc3cn(CCC(NC(=O)c4ccc([18F])nc4)C(=O)NCCCCC(NC(=O)NC(CC(=O)O)C(=O)O)C(=O)O)nn3)cc12` (stereo not shown) [[18F]Sri-07-52], which “Bladder % ID/g Mean” value is on record?
**A.** 1.75 % ID/g

**Q.** And the “Blood % ID/g Mean” value?
**A.** 2.39 % ID/g

**Q.** What about the “Brain % ID/g Mean” value of the same compound?
**A.** 0.09 % ID/g

**Q.** And the “Fat % ID/g Mean” value?
**A.** 0.41 % ID/g

**Q.** And the “Femur % ID/g Mean” value?
**A.** 2.10 % ID/g

**Q.** And the “Heart % ID/g Mean” value?
**A.** 1.39 % ID/g

**Q.** What about the “Kidney % ID/g Mean” value of the same compound?
**A.** 1.21 % ID/g

**Q.** And the “Large intestine % ID/g Mean” value?
**A.** 1.16 % ID/g

**Q.** And the “Liver % ID/g Mean” value?
**A.** 1.07 % ID/g

**Q.** What about the “Lung % ID/g Mean” value of the same compound?
**A.** 1.46 % ID/g

**Q.** What about the “Muscle % ID/g Mean” value of the same compound?
**A.** 1.40 % ID/g

**Q.** What about the “Pancreas % ID/g Mean” value of the same compound?
**A.** 3.30 % ID/g

**Q.** And the “Salivary gland % ID/g Mean” value?
**A.** 5.13 % ID/g

**Q.** What about the “Small intestine % ID/g Mean” value of the same compound?
**A.** 1.57 % ID/g

**Q.** What about the “Spleen % ID/g Mean” value of the same compound?
**A.** 0.74 % ID/g

**Q.** What about the “Stomach % ID/g Mean” value of the same compound?
**A.** 0.68 % ID/g

**Q.** What about the “Tumor % ID/g Mean” value of the same compound?
**A.** 2.27 % ID/g

**Q.** What about the “Bladder % ID/g” value (individual mice) of the same compound?
**A.** 1.90 % ID/g and 1.61 % ID/g

**Q.** What about the “Blood % ID/g” value (individual mice) of the same compound?
**A.** 2.58 % ID/g and 2.21 % ID/g

**Q.** What about the “Brain % ID/g” value (individual mice) of the same compound?
**A.** 0.08 % ID/g and 0.11 % ID/g

**Q.** What about the “Fat % ID/g” value (individual mice) of the same compound?
**A.** 0.53 % ID/g and 0.29 % ID/g

**Q.** What about the “Femur % ID/g” value (individual mice) of the same compound?
**A.** 1.91 % ID/g and 2.29 % ID/g

**Q.** And the “Heart % ID/g” value (individual mice)?
**A.** 1.36 % ID/g and 1.42 % ID/g

**Q.** What about the “Kidney % ID/g” value (individual mice) of the same compound?
**A.** 1.18 % ID/g and 1.23 % ID/g

**Q.** What about the “Large intestine % ID/g” value (individual mice) of the same compound?
**A.** 1.11 % ID/g and 1.21 % ID/g

**Q.** What about the “Liver % ID/g” value (individual mice) of the same compound?
**A.** 1.11 % ID/g and 1.04 % ID/g

**Q.** What about the “Lung % ID/g” value (individual mice) of the same compound?
**A.** 1.60 % ID/g and 1.32 % ID/g

**Q.** What about the “Muscle % ID/g” value (individual mice) of the same compound?
**A.** 1.43 % ID/g and 1.38 % ID/g

**Q.** What about the “Pancreas % ID/g” value (individual mice) of the same compound?
**A.** 3.34 % ID/g and 3.27 % ID/g

**Q.** And the “Salivery gland % ID/g” value (individual mice)?
**A.** 4.35 % ID/g and 5.90 % ID/g

**Q.** And the “Small intestine % ID/g” value (individual mice)?
**A.** 1.56 % ID/g and 1.57 % ID/g

**Q.** And the “Spleen % ID/g” value (individual mice)?
**A.** 0.72 % ID/g and 0.77 % ID/g

**Q.** What about the “Stomach % ID/g” value (individual mice) of the same compound?
**A.** 0.66 % ID/g and 0.69 % ID/g

**Q.** And the “Tumor % ID/g” value (individual mice)?
**A.** 2.44 % ID/g and 2.10 % ID/g
